Consider eleven compounds from patent US12252417B2, “Passive, gravity-driven system for treatment of an effluent in a diagnostic system” (Ventana Medical Systems, Inc., priority 2016, dated 2025).

Structures are written as SMILES. Entries after “also recorded” stand apart in the source; their conditions may differ. Some results are limits rather than exact numbers.

The nature of series [1]: Thermal radical initiator screening, DAB decomposition by sonication in BenchMark Reaction Buffer. Conditions: for Effect on DAB decomposition with sonication: BenchMark Reaction Buffer; for Sonication time after which no DAB monomer was detectable: DAB 68.1 mg/L in BenchMark Reaction Buffer, initiator approx. 0.0882 mmol per 25 mL. Here is the method:
Sonication can form acoustic cavitation in liquids causing the formation, growth and implosive collapse of bubbles and heat generation. Sonication was used to thermally activate thermal radical initiators to induce DAB decomposition. Thermal radical initiator screening experiments were performed using a MisonixSonicator 3000 Ultrasonic Liquid Processor. The sonicator voltage converter and horn were connected to a microtip probe. […] A DAB sample in RTD BenchMark Reaction Buffer (68.1 mg/L) was sonicated with or without the presence of a thermal radical initiator. […] The sonication mixed the sample efficiently.

Series [2] is described as follows: Radical initiator screening in DAB UV oxidation (Aquatop 10 W in-line UV sterilizer, BenchMark Reaction Buffer). Conditions: for Impact on DAB UV oxidation: 30 min UV exposure, relative to no initiator; for % Loss DAB (30 min UV): DAB 68.1 mg/L in BenchMark Reaction Buffer, initiator approx. 0.882 mmol per 250 mL, 10 W.
Series [3] can be described thus: DAB UV oxidation in in-line UV sterilizer, DDI water matrix. It counts as physicochemical. Here is the method: A DAB sample in DDI water (68.1 mg/L) was treated with 3% hydrogen peroxide as a radical initiator (1 mL per approx. 225 mL DAB sample). […] Mixing aided the diffusion of the homolytic hydrogen peroxide UV oxidation product (HO·), which oxidized DAB.
The sample was irradiated by UV light (60 to 90 min).

The nature of series [4]: DAB UV oxidation in 36 W top-down UV irradiation test bed, Reaction Buffer matrix. It is filed as physicochemical. Here is the method:
As shown in FIGS. 9A-9C, a test bed was prepared to investigate top-down UV irradiation systems without direct liquid contact to the UV irradiation source (also referred to as “UV lamp light”). This test bed used two 18 W lamps to irradiate the fluid matrix from above while the liquid meandered through a predetermined path in the metal tray below to control sample exposure time. The UV light sources may be installed adjacently in parallel connection to each other (e.g. UV light array, etc.) to increase the power of the array. Alternatively, the UV light sources may be installed serially to increase exposure time. A second bottom irradiation plastic container was prepared without the pathway. UV light is absorbed as it goes through a liquid medium causing the aqueous layer furthest from the lamp to receive less UV irradiation. This test bed was used to examine liquid layer thickness and waste matrix impurities (i.e. LCS, DAB oxidation products, etc.) impact on DAB UV decomposition rates.
The 36 W top-down UV irradiation test bed without direct sample liquid contact to the UV light source was used to investigate matrix layer thickness tolerance during DAB UV irradiation (FIGS. 9A-9C). UV light is absorbed as it goes through a liquid medium causing the aqueous layer furthest from the lamp to receive less UV irradiation. A DAB sample in Reaction Buffer matrix was prepared at the expected waste concentration with approximately 20% (v/v) LCS. OptiView DAB IHC detection kit DAB chromogen, detection peroxide and inhibitor peroxide reagents were added to BenchMark Reaction Buffer matrix (143 μL each reagent per 250 mL). The 36 W top-down UV irradiation test bed bottom was filled with a specific matrix layer thickness (i.e. 10-, 20- or 30-mm thickness). The DAB sample was treated with UV irradiation without mixing and a sample was removed every 2 minutes to 10 minutes and then every 5 minutes thereafter through 30 minutes. The matrix sample was analyzed by RP UPLC.
The 36 W top-down UV irradiation test bed without direct sample liquid contact to the UV light source was used to investigate how LCS could be tolerated during DAB UV irradiation in a top-down configuration. A DAB sample in Reaction Buffer matrix was prepared at the expected waste concentration with or without approximately 20% (v/v) LCS. OptiView DAB IHC detection kit DAB chromogen, detection peroxide and inhibitor peroxide reagents were added to Reaction Buffer matrix (143 μL each reagent per 250 mL). These Reaction Buffer/LCS mixed matrix was tested with LCS not mixed, mixed by inversion 20× to form an initial bubble LCS emulsion, and vigorously mixed to form an initial opaque LCS emulsion.
The 36 W top-down UV irradiation test bed bottom was filled with a 10 mm volume layer thickness. The DAB sample was treated with UV irradiation without mixing and a sample was removed every 2 minutes to 10 minutes and then every 5 minutes thereafter through 30 minutes. The matrix sample was analyzed by RP UPLC. […] These DAB intermediates remained in solution longer when the opaque white LCS layer was present.

Series [5] can be described thus: DAB UV oxidation in in-line UV sterilizers, BenchMark IHC waste matrix. Conditions: for UV irradiation time for DAB monomer to decrease to LOD: 55 W.
Protocol: DAB degradation rates were determined using HPLC analysis to monitor DAB concentration change in Milli-Q® deionized (“DDI”) water, BenchMark Reaction Buffer and BenchMark IHC waste matrices. HPLC analyses were performed on a Waters Acquity Ultra Performance Liquid Chromatography (“UPLC”) instrument with photodiode array (“PDA”) detection. Standard reverse phase chromatography was used for UPLC analyses in BenchMark Reaction Buffer and DDI water matrices. Reverse phase HPLC chromatography with ion-pairing was used for DAB analysis in BenchMark waste. DAB samples were analyzed without filtration or dilution.
A SIELC PrimeSep S column 2.1×100 mm (5μ) and 2.1×10 mm guard column HPLC column was used. The eluents were 40% acetonitrile in 50 mM ammonium formate (pH=4.0). The flow rate was 0.2 mL/min, the gradient profile was an isocratic elution, the column temperature was 30° C., and the injection volume was 8 μL. The PDA detection wavelengths were 210 to 499 nm (2.4 nm resolution and 20 pts/sec). The expected retention time (in BenchMark waste) for DAB and 2-HOPyr was 2.56 min and 1.64 min, respectively.
Multiple UV irradiation flow-through systems were used to examine UV promoted DAB oxidation. A commercial in-line UV water sterilizers with preset lamp wattage and UV irradiation chamber geometry, namely, an Aquatop 10 W In-line UV sterilizer (Aquatop p/n: IL10-UV), was used to treat water up to a 211 gallon/hour flow rate. The sterilizer featured an external variable-speed micropump gear pump that controlled fluid flow rates with the assistance of an independent power supply. Samples were irradiated with active mixing, dwell mixing, or no mixing. For in-line UV sterilizers that were used without mixing pumps, inversion mixing was performed to create a uniform sample prior to sampling. Multiple UV sterilizer UV lamp wattages were examined (10, 18 and 55 W). Multiple UV irradiation sources may be installed adjacently with serial connection to each other to increase effluent exposure time.
DAB UV oxidation experiments were performed in the Aquatop 10 W in-line UV sterilizer as above with variable sample matrices (i.e. DDI water versus BenchMark IHC Waste). […] A fresh BenchMark Ultra OptiView DAB with TSA Amp IHC Waste was used for this experiment where the aqueous layer was separated from a majority of the LCS by gravity. The BenchMark IHC Waste still contained some LCS, which was finely dispersed with the BenchMark IHC waste surfactants. Both samples were irradiated by UV light for 75 minutes. The Aquatop in-line sterilizer was inverted (2×) using an air pocket to mix the matrix uniformly prior to sampling. The reaction mixture was analyzed by UPLC every 10 minutes.
DAB UV oxidation experiments were performed within in-line UV water sterilizers with different UV lamp wattages. […] The Aquatop in-line sterilizer was inverted (2×) using an air pocket to mix the matrix uniformly prior to sampling. The reaction mixture was analyzed by UPLC every 10 minutes.

Consider `CC(C)(N=NC(C)(C)C(=N)N)C(=N)N` [2,2′-azobis(2-methylpropionatnidine)], for which the “Effect on DAB decomposition with sonication” value (shortened to “Effect on DAB decomposition”) in series [1] is given as “promoted DAB oxidation with sonication”.
For `CC(C#N)(CCC(=O)O)N=NC(C)(C#N)CCC(=O)O` (stereo not shown) [4,4′-azobis(4-cyanovaleric acid)], the “Effect on DAB decomposition” value in series [1] is “promoted DAB oxidation with sonication”.
As to `Nc1ccc(C(=O)c2ccccc2)cc1` [ABP, 4-amino-benzophenone], in series [2], the “Impact on DAB UV oxidation” value is listed as “appeared to inhibit DAB oxidation” and the “% Loss DAB (30 min UV)” value amounted to 16%.
For `CC(C)(C#N)N=NC(C)(C)C#N` [AIBN, azobisisobutyronitrile], the “Sonication time after which no DAB monomer was detectable” value in series [1] is 25 min. In series [2], the “Impact on DAB UV oxidation” value was “minimal impact on DAB UV oxidation” and the “% Loss DAB (30 min UV)” value is 64%.
Regarding `N.N.O=S(=O)(O)OOS(=O)(=O)O` [APS, ammonium persulfate], the “Sonication time after which no DAB monomer was detectable” value in series [1] is at most 5 min. For the same compound, in series [2], the “% Loss DAB (30 min UV)” value came to 100%. The compound also returned a DAB loss in series [2] (after 2 minutes exposure to the initiator) of over 95%.
Take `CCN(CC)c1ccc(C(=O)c2ccc(N(CC)CC)cc2)cc1` [BDABP, 4,4′-bisdiethylaminobenzophenone]: in series [2], the “Impact on DAB UV oxidation” value is “decreased the amount of DAB monomer found in solution” and the “% Loss DAB (30 min UV)” value is recorded as 68%.
On to `O=C(OOC(=O)c1ccccc1)c1ccccc1` [Benzoyl Peroxide, benzoyl peroxide], for which the “Sonication time after which no DAB monomer was detectable” value in series [1] came to 5 min. In series [2], the “Impact on DAB UV oxidation” value was “decreased the amount of DAB monomer found in solution” and the “% Loss DAB (30 min UV)” value was determined as 72%.
With `Nc1ccc(-c2ccc(N)c(N)c2)cc1N` [DAB, 3,3′-diaminobenzidine], the DAB monomer detected result is given as “Approximately 34%” in series [3] (10 W in-line UV sterilizer, 15 minutes of static UV irradiation without any mixing) and “Less than 5%” in series [2] (BenchMark Reaction Buffer, 60 minutes of UV irradiation, presence of hydrogen peroxide). Also, the “DAB monomer still detectable” value in series [3] (10 W, 60 minutes UV irradiation, absence of hydrogen peroxide) is “Approximately 10%”; in series [2] (BenchMark Reaction Buffer, 60 minutes UV irradiation, absence of hydrogen peroxide), “Approximately 38%”; in series [5] (BenchMark waste, 10 W, 60 minutes UV irradiation, without hydrogen peroxide) it was “about 21%”. The “UV irradiation time after which no DAB monomer was detected” value in series [3] (10 W, presence of hydrogen peroxide (1 mL 3% per approx. 225 mL)) was 50 min. Besides, in series [3] (55 W UV in-line sterilizer, RP UPLC, data not shown), the “UV irradiation time after which DAB monomer was not detectable” value lay in the range of 20 to 30 min. In series [3] (samples that received only 2 minutes UV irradiation), the “DAB monomer by UPLC after storage overnight at 10° C.” value was “not detected; also recorded: No DAB monomer was detected”. Further, the “UV irradiation time to no DAB intermediates (dimers, trimers)” value is 15 to 20 min in series [4] (10 mm matrix layer thickness); 25 min in series [4] (20 mm matrix layer thickness); over 30 min in series [4] (30 mm matrix layer thickness, intermediates still shown). For the same compound, the “UV irradiation time to no DAB intermediates” value is 4 to 6 min in series [4] (Reaction Buffer only matrix, 10 mm layer); 10 to 15 min in series [4] (clear LCS layered matrix, 10 mm layer); 20 to 25 min in series [4] (other LCS emulsion samples, 10 mm layer). Further, the “UV radiation time after which no DAB monomer was detected” value lay within 2 to 4 min in series [4] (all aqueous layer thicknesses (10, 20, 30 mm), approx. 20% (v/v) LCS, no mixing) and 2 to 4 min in series [4] (all sample matrices (with or without LCS, emulsions), 10 mm layer). Moreover, the “Time to DAB monomer at or below HPLC LOD” value in series [5] (BenchMark IHC waste, 10 W, 3 mL 3% peroxide per 250 mL) is at most 30 min. Also, the “UV irradiation time for DAB monomer to decrease below LOD” value in series [5] (BenchMark IHC waste, 18 W, 3% hydrogen peroxide 20 mL per approx. 1.5 L) is given as “Approximately 90 minutes”. In addition, the “UV irradiation time for DAB monomer to decrease to LOD” value in series [5] (BenchMark IHC waste, 3% hydrogen peroxide 20 mL per approx. 1.5 L) is 30 min; in series [5] (both BenchMark IHC waste matrices (with and without LCS emulsion), hydrogen peroxide) it was 30 to 40 min.
With `OO` [Hydrogen Peroxide, hydrogen peroxide], the Solubility in water entry is listed as “completely soluble in water”. Also, the “Effect on DAB decomposition” value in series [1] is on record as “failed to show any substantial DAB decomposition”. In series [2], the “% Loss DAB (30 min UV)” value was found to be 96%.
As for `CC(=O)OO` [Peracetic Acid, peracetic acid], the Solubility in water result is given as “completely soluble in water”. For the same compound, in series [2], the “Impact on DAB UV oxidation” value was “decreased the amount of DAB monomer found in solution” and the “% Loss DAB (30 min UV)” value is 73%.
As for `CC1(C)CCCC(C)(C)N1[O]` [TEMPO], in series [2], the “Impact on DAB UV oxidation” value is on record as “appeared to inhibit DAB oxidation” and the “% Loss DAB (30 min UV)” value came to 45%.
